Test results from patent US20160237059A1, “HETEROCYCLIC SUBSTITUTED TRIFLUOROMETHYL PYRIMIDINONES AND THEIR USE” (BAYER PHARMA AKTIENGESELLSCHAFT, priority 2013, published 2016).

Legend:
[1] = target: T1, human CCR2 (Homo sapiens, UniProt P41597); assay: Functional Ca2+ release test (B-1); format: cell-based; details: Chem-1 cell line transfected with human CCR2; 50% inhibition of the MCP-1 effect, MCP-1 at EC50 (about 5 nM); in some cases means of several determinations
T1 construct: host or cells: Chem-1 cell line
T1 sequence (P41597 1-360 isoform P41597-2): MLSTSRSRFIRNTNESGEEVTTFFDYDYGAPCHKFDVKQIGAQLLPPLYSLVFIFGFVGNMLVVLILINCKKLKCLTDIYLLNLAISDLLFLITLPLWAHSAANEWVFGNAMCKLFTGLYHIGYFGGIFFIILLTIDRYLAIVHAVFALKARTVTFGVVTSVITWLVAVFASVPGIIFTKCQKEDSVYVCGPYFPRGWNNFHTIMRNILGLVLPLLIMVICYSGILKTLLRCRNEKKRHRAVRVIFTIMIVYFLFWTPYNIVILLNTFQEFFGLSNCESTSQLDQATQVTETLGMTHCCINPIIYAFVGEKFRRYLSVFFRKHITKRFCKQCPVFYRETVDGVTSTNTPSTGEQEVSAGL
Procedure, shortened: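 Inhibition of MCP-1-evoked Ca2+ release was measured over 120 s by fluorescence imaging in Fluo-4-loaded, human CCR2-transfected Chem-1 cells. Compounds, tested in 10-point 1:3.16 series, were added 10 min before agonist at its EC50 (typically about 5 nM). IC50 values were obtained by 4-parameter logistic fitting.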

[2] = target: T2, murine CCR2 (Mus musculus, UniProt P51683); assay: Functional β-arrestin recruiting test with human MCP-1 (B-2a); format: cell-based; details: U2OS β-arrestin cell line transfected with murine CCR2; agonist human MCP-1 at EC50 (about 3 nM); in some cases means of several determinations
T2 construct: host or cells: U2OS β-arrestin cell line
Method: The antagonistic action of test substances on CCR2 was determined in a β-arrestin test. The PathHunter β-arrestin GPCR test system (DiscoveRx Corporation, Ltd.) is a cell-based functional method for detecting binding of β-arrestin to an activated receptor. The molecular basis is a […] complementation measured by the enzymatic conversion of a chemiluminescent substrate. The test cell used was a U2OS β-arrestin cell line transfected with murine CCR2 (93-0543C3, DiscoveRx Corporation, Ltd.).
The test substances were dissolved in dimethyl sulphoxide (DMSO) at a concentration of 10 mM and serially diluted with DMSO in steps of 1:3.16 for a 10-point dose/activity analysis. According to the desired test concentrations, the substances were pre-diluted in Tyrode with 2 mM CaCl2 and 0.05% BSA.
The cells, cultivated in MEM Eagle (supplemented with 10% FCS, 50 U/ml of penicillin, 50 μg/ml of streptomycin, 250 μg/ml of hygromycin and 500 μg/ml of geniticin), were sown at 2000 cells/25 μl in 384 well, μCLEAR/black cell culture plates from Greiner (#781092) and incubated at 37° C. for 24 h. The sowing medium consisted of Opti-MEM (supplemented with 1% FCS, 50 U/ml of penicillin and 50 μg/ml of streptomycin). The cells were pre-incubated for 10 min with 10 μl of the test substances diluted in buffer, and 10 μl of agonist solution [human MCP-1 (PeproTech, #300-04) in Tyrode with 0.05% BSA) were then added. The human MCP-1 was employed at the concentration which corresponds to the EC50 which had been determined in a preliminary test (usually about 3 nM). After 90 min of incubation at 37° C., the solution was removed, and recruitment of β-arrestin to CCR2 was detected with the aid of the PathHunter detection reagent (93-001, DiscoveRx Corporation, Ltd.) according to the instructions of the manufacturer. Luminescence was measured after an incubation time of 60 min using a proprietary luminescence imaging measuring instrument. The molar concentration of the test substance which caused 50% inhibition of the MCP-1 effect (IC50) was determined using a 4-parameter logistic function (Hill function).

T2 sequence (P51683 whole entry): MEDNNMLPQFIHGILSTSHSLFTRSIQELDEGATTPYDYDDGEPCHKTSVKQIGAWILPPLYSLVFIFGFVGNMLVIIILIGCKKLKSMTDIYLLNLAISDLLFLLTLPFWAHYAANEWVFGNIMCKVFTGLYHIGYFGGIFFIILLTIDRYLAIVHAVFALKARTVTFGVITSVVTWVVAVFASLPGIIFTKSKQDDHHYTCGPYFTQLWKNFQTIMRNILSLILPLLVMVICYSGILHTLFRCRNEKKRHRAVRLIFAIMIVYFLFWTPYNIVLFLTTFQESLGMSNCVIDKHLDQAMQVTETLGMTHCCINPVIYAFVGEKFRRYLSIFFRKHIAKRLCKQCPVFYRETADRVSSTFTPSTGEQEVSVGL

IC50 [1] [nM] | IC50 [2] [nM] | Structure (SMILES)
14 | 54 | CC1(C)NC(c2nc(C(F)(F)F)c(Oc3ccc(Cl)c(C(F)(F)F)c3)c(=O)[nH]2)=NO1 [Example 87, 5-[4-Chloro-3-(trifluoromethyl)phenoxy]-2-(5,5-dimethyl-4,5-dihydro-1,2,4-oxadiazol-3-yl)-6-(trifluoromethyl)pyrimidin-4(3H)-one]
18 | 6100 | O=C(O)c1cc(O)n(-c2nc(C(F)(F)F)c(Cc3ccc(Cl)c(Cl)c3)c(=O)[nH]2)n1 [Example 88, 1-[5-(3,4-Dichlorobenzyl)-6-oxo-4-(trifluoromethyl)-1,6-dihydropyrimidin-2-yl]-5-hydroxy-H-pyrazole-3-carboxylic acid]
11 | 370 | O=c1[nH]nc(Cc2nc(C(F)(F)F)c(Cc3ccc(Cl)c(Cl)c3)c(=O)[nH]2)o1 [Example 89, 5-(3,4-Dichlorobenzyl)-2-[(5-oxo-4,5-dihydro-1,3,4-oxadiazol-2-yl)methyl]-6-(trifluoromethyl)pyrimidin-4(3H)-one]
58 | 620 | O=c1[nH]nc(Cc2nc(C(F)(F)F)c(Cc3ccc(Cl)c(Cl)c3)c(=O)[nH]2)[nH]1 [Example 90, 5-(3,4-Dichlorobenzyl)-2-[(5-oxo-4,5-dihydro-1H-1,2,4-triazol-3-yl)methyl]-6-(trifluoromethyl)pyrimidin-4(3H)-one]
22 | 270 | Cc1noc(Cc2nc(C(F)(F)F)c(Cc3ccc(Cl)c(Cl)c3)c(=O)[nH]2)n1 [Example 91, 5-(3,4-Dichlorobenzyl)-2-[(3-methyl-1,2,4-oxadiazol-5-yl)methyl]-6-(trifluoromethyl)pyrimidin-4(3H)-one]
57 | 220 | O=c1[nH]c(Cc2ncn[nH]2)nc(C(F)(F)F)c1Cc1ccc(Cl)c(Cl)c1 [Example 92, 5-(3,4-dichlorobenzyl)-2-(1H-1,2,4-triazol-5-ylmethyl)-6-(trifluoromethyl)pyrimidin-4(3H)-one]
83 | 370 | O=c1[nH]c(Cc2ccncc2)nc(C(F)(F)F)c1Cc1ccc(Cl)c(Cl)c1 [Example 93, 5-(3,4-dichlorobenzyl)-2-(pyridin-4-ylmethyl)-6-(trifluoromethyl)pyrimidin-4(3H)-one]
90 | 420 | O=c1[nH]c(Cc2ccccn2)nc(C(F)(F)F)c1Cc1ccc(Cl)c(Cl)c1 [Example 94, 5-(3,4-dichlorobenzyl)-2-(pyridin-2-ylmethyl)-6-(trifluoromethyl)pyrimidin-4(3H)-one]
30 | 160 | O=c1[nH]c(Cc2ccno2)nc(C(F)(F)F)c1Cc1ccc(Cl)c(Cl)c1 [Example 96, 5-(3,4-dichlorobenzylylmethyl)-6-(trifluoromethyl)pyrimidin-4(3H)-one]
100 | 490 | O=c1[nH]c(Cc2ccsc2)nc(C(F)(F)F)c1Cc1ccc(Cl)c(Cl)c1 [Example 97, 5-(3,4-dichlorobenzyl)-2-(3-thienylmethyl)-6-(trifluoromethyl)pyrimidin-4(3H)-one]
120 | 460 | O=c1[nH]c(Cc2cccnc2)nc(C(F)(F)F)c1Cc1ccc(Cl)c(Cl)c1 [Example 98, 5-(3,4-dichlorobenzyl)-2-(pyridin-3-ylmethyl)-6-(trifluoromethyl)pyrimidin-4(3H)-one]
72 | 630 | Cc1n[nH]c(Cc2nc(C(F)(F)F)c(Cc3ccc(Cl)c(Cl)c3)c(=O)[nH]2)n1 [Example 99, 5-(3,4-Dichlorobenzyl)-2-[(3-methyl-1H-1,2,4-triazol-5-yl)methyl]-6-(trifluoromethyl)pyrimidin-4(3H)-one]
65 | 920 | COc1cccc(Nc2nc(C(F)(F)F)c(Oc3ccc(Cl)c(C(F)(F)F)c3)c(=O)[nH]2)n1 [Example 100, 5-[4-Chloro-3-(trifluoromethyl)phenoxy]-2-[(6-methoxypyridin-2-yl)amino]-6-(trifluoromethyl)pyrimidin-4(3H)-one]
430 | 11000 | COc1cccc(Nc2nc(C(F)(F)F)c(Oc3ccc(Cl)c(Cl)c3)c(=O)[nH]2)n1 [Example 101, 5-(3,4-dichlorophenoxy)-2-[(6-methoxypyridin-2-yl)amino]-6-(trifluoromethyl)pyrimidin-4(3H)-one]
150 | 260 | COc1cccnc1Nc1nc(C(F)(F)F)c(Oc2ccc(Cl)c(Cl)c2)c(=O)[nH]1 [Example 102, 5-(3,4-dichlorophenoxy)-2-[(3-methoxypyridin-2-yl)amino]-6-(trifluoromethyl)pyrimidin-4(3H)-one]
50 | 370 | COc1cccnc1Nc1nc(C(F)(F)F)c(Oc2ccc(Cl)c(C(F)(F)F)c2)c(=O)[nH]1 [Example 103, 5-[4-chloro-3-(trifluoromethyl)phenoxy]-2-[(3-methoxypyridin-2-yl)amino]-6-(trifluoromethyl)pyrimidin-4(3H)-one]
9.4 | 160 | O=c1[nH]c(Nc2cn[nH]c2)nc(C(F)(F)F)c1Oc1ccc(Cl)c(C(F)(F)F)c1 [Example 104, 5-[4-Chloro-3-(trifluoromethyl)phenoxy]-2-(1H-pyrazol-4-ylamino)-6-(trifluoromethyl)pyrimidin-4(3H)-one]
41 | 380 | O=c1[nH]c(Nc2cn[nH]c2)nc(C(F)(F)F)c1Cc1ccc(Cl)c(C(F)(F)F)c1 [Example 105]
180 | 1400 | Cn1cnc(Nc2nc(C(F)(F)F)c(Oc3ccc(Cl)c(Cl)c3)c(=O)[nH]2)n1 [Example 106, 5-(3,4-dichlorophenoxy)-2-[(1-methyl-1H-1,2,4-triazol-3-yl)amino]-6-(trifluoromethyl)pyrimidin-4(3H)-one]
59 | 480 | Cc1cc(Nc2nc(C(F)(F)F)c(Oc3ccc(Cl)c(Cl)c3)c(=O)[nH]2)on1 [Example 109]
41 | 730 | Cn1cc(Nc2nc(C(F)(F)F)c(Oc3ccc(Cl)c(Cl)c3)c(=O)[nH]2)cn1 [Example 110, 5-(3,4-dichlorophenoxy)-2-[(1-methyl-1H-pyrazol-4-yl)amino]-6-(trifluoromethyl)pyrimidin-4(3H)-one]
59 | 360 | O=C1NCCN1c1nc(C(F)(F)F)c(Cc2ccc(Cl)c(Cl)c2)c(=O)[nH]1 [Example 111, 5-(3,4-Dichlorobenzyl)-2-(2-oxoimidazolidin-1-yl)-6-(trifluoromethyl)pyrimidin-4(3H)-one]
27 | 380 | O=C1OCCN1c1nc(C(F)(F)F)c(Cc2ccc(Cl)c(Cl)c2)c(=O)[nH]1 [Example 112, 5-(3,4-Dichlorobenzyl)-2-(2-oxo-1,3-oxazolidin-3-yl)-6-(trifluoromethyl)pyrimidin-4(3H)-one]
400 | 1000 | O=c1[nH]c(CC2CCOCC2)nc(C(F)(F)F)c1Cc1ccc(Cl)c(Cl)c1 [Example 171]
62 | 140 | O=c1[nH]c(Cc2cccs2)nc(C(F)(F)F)c1Cc1ccc(Cl)c(Cl)c1 [Example 172]
260 | 980 | O=c1[nH]c(Cn2cncn2)nc(C(F)(F)F)c1Cc1ccc(Cl)c(Cl)c1 [Example 173, 5-(3,4-dichlorobenzyl)-2-(1H-1,2,4-triazol-1-ylmethyl)-6-(trifluoromethyl)pyrimidin-4(3H)-one]
